This note sets out measurements from ChEMBL document CHEMBL1131659, “Synthesis, SAR and pharmacology of CP-293,019: a potent, selective dopamine D4 receptor antagonist” (Bioorg Med Chem Lett, 1998).

One series concerns the target T1, D(4) dopamine receptor (Homo sapiens, UniProt P21917).
T1 sequence (P21917 whole entry): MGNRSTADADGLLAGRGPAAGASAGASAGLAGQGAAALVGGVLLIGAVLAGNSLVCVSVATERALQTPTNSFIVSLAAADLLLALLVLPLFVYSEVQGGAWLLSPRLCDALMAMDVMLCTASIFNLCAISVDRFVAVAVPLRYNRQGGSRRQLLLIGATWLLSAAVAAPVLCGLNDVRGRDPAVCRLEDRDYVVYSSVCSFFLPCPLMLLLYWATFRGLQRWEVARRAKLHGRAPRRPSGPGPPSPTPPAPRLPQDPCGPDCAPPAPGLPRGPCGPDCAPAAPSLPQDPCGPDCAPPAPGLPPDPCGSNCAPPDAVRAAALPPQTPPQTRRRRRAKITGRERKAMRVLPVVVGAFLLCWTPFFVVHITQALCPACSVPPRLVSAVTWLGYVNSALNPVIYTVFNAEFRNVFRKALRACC
Kind of series: biochemical.

Series [1] is described as follows: The compound was tested In Vitro for half life in human liver microsomes. Type of series: ADME, Microsome.
The test system of series [2] is Rattus norvegicus. Kind of series: in vivo for inhibition against hyperactivity induced by apomorphine (1.78 mg/kg) in habituated rats by subcutaneous administration. The settings on record: sc, read-out: ID50 (the source's name). Type of series: functional.
For the next series, the target named is D(3) dopamine receptor (Homo sapiens, UniProt P35462). Kind of series: In vitro binding affinity against human D3 dopamine receptor in CHO cells using [3H]spiperone. In kind it is cell-based.
The test system of series [3] is Rattus norvegicus. Kind of series: in vivo for inhibition against hyperactivity induced by apomorphine (1.78 mg/kg) in habituated rats by oral administration. Type of series: functional. The settings on record: read-out: ID50 (the source's name).
Series [4] in a line: In vivo maximum concentration of compound in rat plasma after a oral dose of 10 mg/kg (in water, N=4). In kind it is ADME, organism-based. On the set-up: dose 10 mg/kg, route oral.
Series [5] is described as follows: In vivo half life of compound in rat plasma after a oral dose of 10 mg/kg (in water, N=4). Type of series: ADME, organism-based. On the set-up: dose 10 mg/kg, route oral.
Series [6] has as its system Rattus norvegicus. Put plainly: Compound was tested for spontaneous locomotor activity in nonhabituated rats when administered po. Type of series: functional. The following applies: read-out: ID50 (the source's name).
The test system of series [7] is Rattus norvegicus. Put plainly: Compound was tested for inhibition of APO-induced blockade of prepulse inhibition in rats when administered sc. The settings on record: read-out: ID50 (the source's name). In kind it is functional.
For series [8], the system named is Rattus norvegicus. Put plainly: Compound was tested for antagonistic activity against APO-induced stereotypy in rats when administered po. In kind it is functional. The settings on record: read-out: ID50 (the source's name).
For series [9], the target named is 5-hydroxytryptamine receptor 2A (Homo sapiens, UniProt P28223). Kind of series: In vitro binding affinity against 5-hydroxytryptamine 2A receptor in CHO cells. Type of series: cell-based.
Series [10] deals with T2, 5-hydroxytryptamine receptor 1A (Mus musculus, UniProt Q64264).
T2 sequence (Q64264 whole entry): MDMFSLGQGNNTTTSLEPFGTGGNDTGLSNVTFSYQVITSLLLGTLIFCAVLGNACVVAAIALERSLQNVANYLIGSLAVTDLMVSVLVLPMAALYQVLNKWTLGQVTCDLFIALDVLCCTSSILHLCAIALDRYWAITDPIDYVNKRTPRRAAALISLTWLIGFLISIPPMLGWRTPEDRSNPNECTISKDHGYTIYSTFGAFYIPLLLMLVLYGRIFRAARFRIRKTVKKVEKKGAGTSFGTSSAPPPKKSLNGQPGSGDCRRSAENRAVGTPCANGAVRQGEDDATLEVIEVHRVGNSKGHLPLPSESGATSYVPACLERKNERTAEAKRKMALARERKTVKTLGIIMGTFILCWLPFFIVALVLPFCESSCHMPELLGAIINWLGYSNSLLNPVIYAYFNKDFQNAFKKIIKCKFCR
Put plainly: In vitro binding affinity against 5-hydroxytryptamine 1A receptor in CHO cells. In kind it is cell-based.

Series [11] is described as follows: In vivo percentage mean absolute bioavailability of compound in rat after an oral dose of 10 mg/kg (in water, N=4). In kind it is ADME, organism-based.

Where only a bound is given, the exact number is not on record here.

Sequence of D(3) dopamine receptor (P35462 whole entry): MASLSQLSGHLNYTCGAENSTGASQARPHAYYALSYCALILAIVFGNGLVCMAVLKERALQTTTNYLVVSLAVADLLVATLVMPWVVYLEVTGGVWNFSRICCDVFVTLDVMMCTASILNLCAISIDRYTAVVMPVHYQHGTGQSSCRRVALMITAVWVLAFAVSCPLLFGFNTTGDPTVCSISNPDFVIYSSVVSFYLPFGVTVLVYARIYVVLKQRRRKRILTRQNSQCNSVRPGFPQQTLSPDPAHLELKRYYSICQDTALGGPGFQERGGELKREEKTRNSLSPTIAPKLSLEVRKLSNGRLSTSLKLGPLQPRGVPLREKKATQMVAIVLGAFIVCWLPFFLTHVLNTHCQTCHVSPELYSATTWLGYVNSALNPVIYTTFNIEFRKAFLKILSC
Sequence of 5-hydroxytryptamine receptor 2A (P28223 whole entry): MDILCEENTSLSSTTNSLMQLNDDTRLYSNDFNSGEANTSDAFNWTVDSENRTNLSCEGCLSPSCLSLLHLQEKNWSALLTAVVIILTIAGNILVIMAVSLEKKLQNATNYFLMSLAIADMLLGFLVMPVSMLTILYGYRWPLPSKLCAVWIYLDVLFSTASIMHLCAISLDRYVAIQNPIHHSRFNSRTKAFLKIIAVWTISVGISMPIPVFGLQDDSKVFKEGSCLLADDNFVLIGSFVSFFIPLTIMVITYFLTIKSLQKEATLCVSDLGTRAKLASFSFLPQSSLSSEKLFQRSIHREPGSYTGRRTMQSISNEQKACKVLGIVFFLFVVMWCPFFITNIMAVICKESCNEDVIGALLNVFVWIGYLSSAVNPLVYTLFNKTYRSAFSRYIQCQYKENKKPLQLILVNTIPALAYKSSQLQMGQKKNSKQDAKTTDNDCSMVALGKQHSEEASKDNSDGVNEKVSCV
Description for D(4) dopamine receptor: In vitro binding affinity at human D4 dopamine receptor in CHO cells by [3H]spiperone displacement.

By Ki is commonly meant the equilibrium dissociation constant of an inhibitor or competing ligand from its target. Lower therefore signals higher affinity. Take `Fc1ccc(OC[C@@H]2CC[C@H]3CN(c4ccc(Cl)cn4)CCN3C2)cc1`: at D(4) dopamine receptor, the inhibition constant Ki amounted to 3.2 nM.

`c1ccc(OC[C@H]2CC[C@H]3CN(c4ncccn4)CCN3C2)cc1` (stereo in doubt; 3a) showed a Ki at D(4) dopamine receptor of 4.1 nM.

`CC(C)(C)c1ccc(OC[C@@H]2CC[C@H]3CN(c4ncccn4)CCN3C2)cc1` yielded a Ki at D(4) dopamine receptor of 20 nM. Compared with the last molecule, the Ki is about 4.9-fold higher.

Usually half-life stands for how long it takes for the measured level to halve. Low values mean rapid decline, high ones slow decline. `Fc1ccc(OC[C@@H]2CC[C@H]3CN(c4ncccn4)CCN3C2)cc1` yielded a Ki at D(4) dopamine receptor of 2.8 nM. In [1], this molecule came in with a half-life of 3.6 min.

As for `c1ccc(OCC2CCC3CN(c4ncccn4)CCN3C2)cc1` (stereo unspecified), affinity on D(4) dopamine receptor was put at a Ki of 3.8 nM.

On D(4) dopamine receptor, `c1ccc(OC[C@H]2CC[C@H]3CN(c4ncccn4)CCN3C2)cc1` (stereo in doubt; 3b) showed a Ki of 1.7 nM. This Ki lies about 2.2-fold lower than the previous one.

`c1ccc(OC[C@@H]2CC[C@H]3CN(c4ncccn4)CCN3C2)cc1` had a Ki at D(4) dopamine receptor of 3.5 nM. Moreover, the half-life in series [1] came to 3 min.

In the case of `c1ccc(OC[C@@H]2CC[C@H]3CN(c4ccccc4)CCN3C2)cc1`, the affinity at D(4) dopamine receptor corresponds to a Ki of 1.6 nM.

`CC(=O)Nc1ccc(OC[C@@H]2CC[C@H]3CN(c4ncccn4)CCN3C2)cc1` yielded a Ki on D(4) dopamine receptor of 316 nM.

Molecule `c1ccc(OC[C@@H]2CC[C@H]3CN(c4ccccn4)CCN3C2)cc1` had a Ki at D(4) dopamine receptor of 1.7 nM.

Broadly, the Cmax is the peak of the concentration-time curve. As a reminder, the IC50 is the concentration at which inhibition is half-maximal. A high value points to a need for much substance. Usually bioavailability stands for dose-corrected exposure relative to a reference, in per cent. As to `Fc1ccc(OC[C@@H]2CC[C@H]3CN(c4ncc(F)cn4)CCN3C2)cc1`, the ED50 with Rattus norvegicus [2] was 10 mg/kg; in the series on Rattus norvegicus [3], 13.3 mg/kg; in the series on Rattus norvegicus [6] it was over 56 mg/kg; with Rattus norvegicus [7] it was 17.8 mg/kg; in the series on Rattus norvegicus [8], over 56 mg/kg. Besides, the figures for the inhibition constant (Ki) on D(3) dopamine receptor and at D(4) dopamine receptor were over 2000 nM and 3.4 nM, respectively. In series [4], this molecule returned a Cmax of 730 ng/mL. Besides, the half-life in series [5] is 270 min; in [1], 12.2 min. Also, the IC50 is 150 nM in series [9] and 180 nM in [10]. Besides, the bioavailability in series [11] was 93%.

In the case of `Fc1ccc(OC[C@@H]2CC[C@@H]3CN(c4ncc(F)cn4)CCN3C2)cc1`, the Ki at D(4) dopamine receptor is 39 nM.

The molecule `Fc1ccc(OC[C@H]2CC[C@@H]3CN(c4ncc(F)cn4)CCN3C2)cc1` came in with a Ki at D(4) dopamine receptor of 106 nM.

For the molecule `COc1ccc(OC[C@@H]2CC[C@H]3CN(c4ncccn4)CCN3C2)cc1`, affinity at D(4) dopamine receptor was put at a Ki of 18 nM. This Ki lies about 5.9-fold lower than the previous one.

Molecule `COC(=O)c1ccc(OC[C@@H]2CC[C@H]3CN(c4ncccn4)CCN3C2)cc1` returned a Ki on D(4) dopamine receptor of 127 nM.

In turn, `Fc1ccc(OC[C@H]2CC[C@H]3CN(c4ncc(F)cn4)CCN3C2)cc1` yielded a Ki on D(4) dopamine receptor of 2 nM. This Ki lies about 64-fold lower than the previous one.

On D(4) dopamine receptor, `Fc1ccc(OC[C@@H]2CC[C@H]3CN(c4ccc(F)cc4)CCN3C2)cc1` showed a Ki of 5.3 nM.
